In patent publication US8877948B2, “Synthesis process of polyol carbonate from polyols, conducted in using a solvent selective for polyols carbonates” (Arkema France, priority 2008, dated 2014):

Assay: Solubility of glycerol carbonate, glycerol and urea in selective solvents
Assay type: physicochemical
Details: at 25° C.

## CC(C)C#N [Isobutyronitrile]
Solute glycerol carbonate in the listed solvent
  Solubility of Glycerol Carbonate: >500 mg/mL
Solute glycerol in the listed solvent
  Solubility of Glycerol: 10 mg/mL
Solute urea in the listed solvent
  Solubility of Urea: 60 mg/mL
